Where two headings read alike, the source gives them in different places.
Key:
[1] = target: T1, fatty acyl CoA: cholesterol acyl transferase (ACAT) (Rattus norvegicus, UniProt O70536); test: Inhibition of fatty acyl CoA:cholesterol acyl transferase (ACAT), rat adrenal enzyme; format: biochemical; conditions: for IC50: several concentrations
T1 construct: The supernatant, containing the microsomal fraction, served as the source of the cholesterol-esterifying enzyme; from tissue; host or cells: rat adrenals, supernatant of 1,000 x g centrifugation containing the microsomal fraction
T1 sequence (O70536 1-545): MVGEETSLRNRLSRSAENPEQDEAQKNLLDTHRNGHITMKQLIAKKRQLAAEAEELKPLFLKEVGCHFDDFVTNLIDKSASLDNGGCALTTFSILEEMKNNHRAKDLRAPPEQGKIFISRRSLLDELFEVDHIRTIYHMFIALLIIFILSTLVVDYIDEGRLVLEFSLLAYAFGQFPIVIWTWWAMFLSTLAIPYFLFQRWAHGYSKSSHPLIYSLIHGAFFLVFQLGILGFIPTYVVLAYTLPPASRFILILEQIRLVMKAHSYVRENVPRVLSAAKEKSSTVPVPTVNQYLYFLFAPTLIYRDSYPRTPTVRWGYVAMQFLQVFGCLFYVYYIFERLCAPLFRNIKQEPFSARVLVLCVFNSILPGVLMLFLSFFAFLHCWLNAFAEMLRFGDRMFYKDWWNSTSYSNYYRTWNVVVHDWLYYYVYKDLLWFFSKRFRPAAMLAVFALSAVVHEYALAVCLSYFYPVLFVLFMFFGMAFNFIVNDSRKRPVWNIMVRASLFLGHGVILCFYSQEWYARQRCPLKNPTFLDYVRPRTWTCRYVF
Procedure, shortened: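 Enzyme source was the microsomal supernatant of rat adrenal homogenate (0.2M potassium phosphate, pH 7.4) with BSA, preincubated with compound (5.2 μg/ml final for single-point) for 10 min at 37° C. Then [14C]oleoyl CoA added, 10 min at 37° C. TLC-separated cholesteryl ester was counted; percent inhibition versus control, IC50 from several concentrations.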

cholesterol absorption = test: Inhibition of cholesterol absorption in rats fed 1% cholesterol:0.5% cholic acid diet; format: in vivo, male Sprague-Dawley rats; conditions: po, 336 h, rat, 2 weeks; for response vs control in vivo at 0.03 %: dose .03% of the diet; for response vs control in vivo at 0.01 %: dose .01% of the diet
Procedure, shortened: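 Male Sprague-Dawley rats (150-170 g) fed 1% cholesterol:0.5% cholic acid diet for 2 weeks with compound at 0.001, 0.003, 0.01 or 0.03% of diet. Serum cholesterol measured enzymatically; liver cholesterol from saponified large-lobe sample after petroleum ether extraction. Liver and serum sterol expressed as percent of untreated controls.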

[2] = rat adrenal ACAT, final concentration 5.2 μg/ml, read-out: % Inhibition
[3] = read-out: LS (liver sterol), percentage of control values
[4] = read-out: SS (serum sterol), percentage of control values

Compound	inhibition at 5.2 µg/mL [1, 2]	IC50 ([1]; rat adrenal ACAT)	response vs control in vivo at 0.03 % (cholesterol absorption; [3])	response vs control in vivo at 0.03 % (cholesterol absorption; [4])	inhibition at 5.2 µg/mL [1]	response vs control in vivo at 0.01 % (cholesterol absorption; [3])	response vs control in vivo at 0.01 % (cholesterol absorption; [4])
CCCCCOc1ccc(CN(Cc2ccc(CCCCC)cc2)C(=O)Nc2ccc(F)cc2F)cc1 [1-(4-n-Pentylbenzyl)-1-(4-n-pentyloxybenzyl)-3-(2,4-difluorophenyl)urea]	–	–	67%	55%	90%	–	–
CCCCCCCN(Cc1ccc(OCCCC)cc1)C(=O)Nc1ccc(Cl)cc1Cl [1-(n-Heptyl)-(4-n-butoxybenzyl)-3-(2,4-dichlorophenyl)urea]	79.9%	–	50%	68%	–	–	–
CCCCCCCN(Cc1ccc(CCCC)cc1)C(=O)Nc1c(Cl)cc(Cl)cc1Cl [1-(n-Heptyl)-1-(4-n-butylbenzyl)-3-(2,4,6-trichlorophenyl)urea]	–	–	8%	28%	90%	–	–
CCCCc1ccc(CN(CCC(C)(C)C)C(=O)Nc2ccc(Cl)cc2C)cc1 [1-(3,3-Dimethylbutyl)-1-[4-(n-butyl)benzyl]-3-(4-chloro-2-methylphenyl)urea]	90.5%	–	13%	46%	–	–	–
CCCCCCCN(Cc1ccc(CCCC)cc1)C(=O)Nc1ccc(F)cc1F [1-[(4-Butylphenyl)methyl]-1-(n-heptyl)-3-[2,4-difluorophenyl]urea]	–	–	19%	35%	90%	–	–
COc1ccccc1CN(Cc1ccccc1F)C(=O)Nc1ccc(C)cc1C [1-(2-Fluorobenzyl)-1-(2-methoxybenzyl)-3-(2,4-dimethylphenyl)urea]	41.5%	–	20%	45%	–	–	–
CCCCc1ccc(CN(CCCCCCC#N)C(=O)Nc2c(Cl)cc(Cl)cc2Cl)cc1 [1-[(4-Butylphenyl)methyl]-1-(6-cyanohexyl)-3-(2,4,6-trichlorophenyl)urea]	–	–	35%	31%	90%	–	–
CCCCc1ccc(CN(CCCCCCC#N)C(=O)Nc2cc(C)c(C)cc2C)cc1 [1-[(4-Butylphenyl)methyl]-1-(6-cyanohexyl)-3-(2,4,5-trimethylphenyl)urea]	–	–	28%	48%	90%	–	–
CCCCCCCN(Cc1ccc(CCCC)cc1)C(=O)Nc1cc(C)c(Cl)cc1C [1-(n-Heptyl)-1-[4-(n-butyl)benzyl]-3-(4-chloro-2,5-dimethylphenyl)urea]	–	–	19%	48%	90%	–	–
CCCCCCCN(Cc1ccc(OCCCC)cc1)C(=O)Nc1ccc(Cl)cc1C [1-(n-Heptyl)-1-(4-n-butoxybenzyl)-3-(2-methyl-4-chlorophenyl)urea]	91.7%	–	15%	53%	–	–	–
CC(C)(C)CCN(Cc1ccc(Cl)cc1)C(=O)Nc1c(Cl)cc(Cl)cc1Cl [1-(3,3-Dimethylbutyl)-1-(4-chlorobenzyl)-3-(2,4,6-trichlorophenyl)urea]	–	–	41%	73%	90%	–	–
CCCCc1ccc(CN(CCCCCCCl)C(=O)Nc2c(Cl)cc(Cl)cc2Cl)cc1 [1-[(4-Butylphenyl)methyl]-1-(6-chlorohexyl)-3-(2,4,6-trichlorophenyl)urea]	–	–	19%	34%	90%	–	–
CCCCc1ccc(CN(CCCCC(C)(C)C)C(=O)Nc2ccc(F)cc2F)cc1 [1-(5,5-Dimethylhexyl)-1-[4-(n-butyl)benzyl]-3-(2,4-difluorophenyl)urea]	–	–	58%	59%	90%	–	–
CCCCCCCN(Cc1ccc(CCCC)cc1)C(=O)Nc1c(C)cc(Cl)cc1C [1-(n-Heptyl)-1-[4-(n-butyl)benzyl]-3-(4-chloro-2,6-dimethylphenyl)urea]	–	–	11%	31%	90%	–	–
CCCCc1ccc(CN(CCC(C)(C)C)C(=O)Nc2c(Cl)cc(Cl)cc2Cl)cc1 [1-(3,3-Dimethylbutyl)-1-[4-(n-butyl)benzyl]-3-(2,4,6-trichlorophenyl)urea]	–	–	13%	37%	90%	–	–
CCCCc1ccc(CN(CCCCCCO)C(=O)Nc2ccc(Cl)cc2C)cc1 [1-[(4-Butylphenyl)methyl]-3-(4-chloro-2-methylphenyl)-1-(6-hydroxyhexyl)urea]	–	–	53%	6%	90%	–	–

The next lines start with results.

inhibition at 5.2 µg/mL [1, 2]	IC50 ([1]; rat adrenal ACAT)	Compound	response vs control in vivo at 0.03 % (cholesterol absorption; [3])	response vs control in vivo at 0.03 % (cholesterol absorption; [4])	inhibition at 5.2 µg/mL [1]	response vs control in vivo at 0.01 % (cholesterol absorption; [3])	response vs control in vivo at 0.01 % (cholesterol absorption; [4])
77%	–	O=C(Nc1c(Cl)cc(Cl)cc1Cl)N(Cc1ccc(Cl)cc1)Cc1cccc2ccccc12 [1-(4-Chlorobenzyl)-1-(1-naphthylmethyl)-3-(2,4,6-trichlorophenyl)urea]	12%	38%	–	–	–
95%	–	O=C(Nc1c(Cl)cc(Cl)cc1Cl)N(Cc1ccccc1)C(Cc1ccccc1)c1ccc(OCc2ccccc2)cc1 (stereo not drawn) [1-Benzyl-1-[2-phenyl-1-(4-benzyloxyphenyl)ethyl]-3-(2,4,6-trichlorophenyl)urea]	64%	95%	–	–	–
89.3%	–	Cc1cc(Cl)ccc1NC(=O)N(Cc1ccccc1)C(Cc1ccccc1)c1ccc(OCc2ccccc2)cc1 (stereo not drawn) [1-Benzyl-1-[2-phenyl-1-(4-benzyloxyphenyl)ethyl]-3-(2-methyl-4-chlorophenyl)urea]	31%	50%	–	–	–
91.8%	–	CCCCCCCN(CCc1ccccc1)C(=O)Nc1ccc(Cl)cc1Cl [1-(n-Heptyl)-1-(2-phenylethyl)-3-(2,4-dichlorophenyl)urea]	88%	81%	–	–	–
89%	–	CCCCOc1ccc(CN(Cc2ccccc2)C(=O)Nc2cc(Cl)c(Cl)cc2Cl)cc1 [1-Benzyl-1-(4-n-butyloxybenzyl)-3-(2,4,5-trichlorophenyl)urea]	65%	66%	–	–	–
–	3.37 µM	CC(C)CCN(Cc1ccc(C(C)C)cc1)C(=O)Nc1ccc(F)cc1F [1-(Isopentyl)-1-[4-(isopropyl)benzyl]-3-(2,4-difluorophenyl)urea]	37%	49%	–	–	–
–	1.84 µM	CCCCCCCN(Cc1ccc(CC(C)C)cc1)C(=O)Nc1ccc(Cl)cc1C [1-(n-Heptyl)-1-[4-(isobutyl)benzyl]-3-(4-chloro-2-methylphenyl)urea]	–	–	–	56%	62%
–	1.74 µM	CCCCCCCN(Cc1ccc(C(C)C)cc1)C(=O)Nc1ccc(Cl)cc1C [1-(n-Heptyl)-1-[4-(isopropyl)benzyl]-3-(4-chloro-2-methylphenyl)urea]	–	–	–	75%	60%
85%	–	CCCCCOc1ccc(CN(Cc2ccc(CCCCC)cc2)C(=O)Nc2ccc(Cl)cc2Cl)cc1 [1-(4-n-Pentylbenzyl)-1-(4-n-pentyloxybenzyl)-3-(2,4-dichlorophenyl)urea]	92%	91%	–	–	–
36.3%	–	Cc1ccc(NC(=O)N(Cc2ccc(-c3ccccc3)cc2)Cc2ccc(Cl)c(Cl)c2)c(C)c1 [1-(4-Phenylbenzyl)-1-(3,4-dichlorobenzyl)-3-(2,4-dimethylphenyl)urea]	17%	49%	–	–	–
89%	–	CCCCN(Cc1ccccc1)C(=O)Nc1ccc(Cl)cc1C [1-(n-Butyl)-1-benzyl-3-(4-chloro-2-methylphenyl)urea]	62%	72%	–	–	–
84%	–	O=C(Nc1ccc(F)cc1F)N(Cc1ccc(Cl)cc1)Cc1cccc2ccccc12 [1-(4-Chlorobenzyl)-1-(1-naphthylmethyl)-3-(2,4-difluorophenyl)urea]	30%	45%	–	–	–
80%	–	O=C(Nc1cccc(C(F)(F)F)c1)N(Cc1ccc(Cl)cc1)Cc1cccc2ccccc12 [1-(4-Chlorobenzyl)-1-(1-naphthylmethyl)-3-(3-trifluoromethylphenyl)urea]	92%	87%	–	–	–

Reference: patent publication US4623662A, “Antiatherosclerotic ureas and thioureas” (American Cyanamid Company, priority 1985, dated 1986)
